# According to US20110028758A1, “Trans-cinnamic acid derivative, its preparation mathod and the use” (priority 2007, published 2011):
# Like-named read-outs stand apart in the source and are kept apart here.
# Legend:
# [1] = system: mice ascites hepatoma cell strain H22; assay: Anti-tumor test in vivo, mice transplanted tumor of liver cancer H22; set-up: species or system Kunming mice
# Procedure: The mice ascites hepatoma cell strain H22 is purchased from the Experimental Center of Zhongshan University.
# Recovery the mice ascites hepatoma cell strain H22, put the cell suspension liquid into a centrifugal tube and use the 4° C. saline to wash the suspension liquid twice, then centrifuge to discard the supernatant, add appropriate 4° C. saline to dilute the suspension liquid, count cells with 0.2% trypan blue, adjust the density to 10^7 cell/ml, according to 0.2 (ml/mice) intraperitoneal inoculation H22 cell suspension liquid.
# After ten days of the intraperitoneal inoculation, the cervical vertebra is dislocated. Disinfect the mice abdominal skin, and suck the milky ascites with a sterile syringe, then adjust the concentration of tumor cells to 1×10^7 cell/ml with injection used saline. Disinfect the right armpit skin of the Kunming mice with alcohol swab, subcutaneously vaccinate the cell suspension liquid 0.2 ml, conventional feeding. […] Totally there are 180 tumor-bearing mice.
# (§1) The 180 tumor-bearing mice are divided into 18 groups by the weigh of the mice, wherein each group has 10 mice (half male and half female). The drug delivery methods of each group are shown in Table 3 to illustrate eighteen groups of mice drug delivery situation.
# Group 1 is the model group, and the mice of group 1 are given the tail vein saline injection daily started on the second day of the tumor-bearing for 10 days.
# (§2) Group 2 is the cyclophosphamide (CTX) group, and the mice of group 2 are only given the cyclophosphamide in the intraperitoneal of the mice on the second day of the tumor-bearing.
# (§3) Group 3 to 18 groups are given the four compounds respectively, wherein the groups delivered 25 mg/kg drug are tail vein low-dose group, wherein the groups delivered 50 mg/kg drugs are the tail vein medium-dose group, wherein the groups delivered 100 mg/kg drugs are the tail vein high-dose group, wherein the groups delivered 200 mg/kg drugs are the oral enteral group. These mice from group 3 to 18 start the drug delivery on the second day of the tumor-bearing, and delivered once a day for 10 sequent days.
# The above drug deliveries are 20 ml/kg.
# After finishing the drug delivery process, weight the mice, then kill the mice by pulling off the neck, and anatomy to get the tumor tissue of the mice on the next day of finishing the drug delivery process, and then weight the anatomized tumor by electronic weighing scales to calculate the inhibition rate.
# [2] = Description: as §1, §2, §3
# After the drug delivery, weight the mice weight, then execute the mice, and then weight the spleen and thymus weight by electronic weighting scale respectively. The spleen index and thymus index are the weight (mg) of mice spleen, thymus of each group/mice weight (g).
# [3] = system: human hepatoma BEL-7402 cells; assay: MTT anti-tumor test in vitro, BEL-7402; assay type: cell-based; settings: Bel- (BEL-7402)
# Description: (§4) A complete culture medium is used for diluting the above original solution into corresponding concentrations for later use.
# (§5) Human cervical carcinoma Hela cells, human hepatoma BEL-7402 cells, mucinous Human epidermoid A549 lung cancer cells, human breast cancer MCF-7/S cells, human glioma U251 cells, and human normal embryonic kidney HEK-293 cells are purchased from USA, American Type Culture Collection (ATCC). All the tumor cells are used the DMEM medium (containing 10% FBS, 100 U/ml penicillin and 100 μg/ml streptomycin) for culturing and subculturing, and HEK-293 cells are using RPMI1640 medium (10% FBS, 100 U/ml penicillin, and 100 μg/ml streptomycin) for culturing and subculturing, wherein the culture condition is in a 5% CO2 incubator at 37° C.
# (§6) Subculture six kinds of cells, which has a logarithmic growing period, adherent rate about 80%, and in good condition, such as human cervical carcinoma Hela cells, human hepatoma BEL-7402 cells, mucinous Human epidermoid A549 lung cancer cells, human breast cancer MCF-7/S cells, human glioma U251 cells, and human normal embryonic kidney HEK-293 cells. Discard the culture medium, rinse 1-2 times with PBS to remove serum, add 1 ml 0.25% Trypsin-0.01% EDTA (37° C. incubation) to digest for 1-2 minutes, add FBS culture medium to terminate the above digestion, centrifuge at a speed below 800 r/min for 2-3 minutes and discard the supernatant, re-suspended cells in 10% FBS medium, tack the cell suspension liquid for cell counting, adjust the density of the above liquid to 1×10^5/ml, then inoculate to a 96-holes plates (100 μl/hole), and then incubate in 5% CO2 incubator at 37° C. overnight. The next day add above cells to different concentrations of I-a, I-b, I-c and I-d, 100 μl/hole (its final concentration is respectively 30, 60, 120, 240, 480 μg/ml); meanwhile, set up the blank control group (0 μM), and establish 3 holes. Continuing the cultural process, discard the culture medium after 48 hours that the drug has been effected, add 100 μl PBS of 0.5 mg/ml MTT (PH 7.2) into each holes, after 4 hours culture, remove the culture medium by adherent cells express flipping method, add 100 μl of DMSO to each holes, oscillate it by micro-oscillation device for 5 minutes, and measure the OD value at 490 nm wavelength. Repeat the above experiment three times to get an average value. Calculate the inhibition rate (IR %) of the tumor cell proliferation in vitro from different concentrations of I-a, I-b, I-c, I-d by the following formula:
# (§7) IR %=(1−ODsampale/ODcontrol)×100%
# (§8) Use SPSS11.5 software to calculate the half inhibitory concentration IC50 of I-a, I-b, I-c and I-d. The results are shown in Table 2 to illustrate IC50 values (unit: μg/ml) of the four compounds.
# [4] = system: human glioma U251 cells; assay: MTT anti-tumor test in vitro, U251; assay type: cell-based
# Description: as §4, §5, §6, §7, §8
# [5] = system: human normal embryonic kidney HEK-293 cells; assay: MTT test on normal cells, HEK-293; assay type: cell-based; settings: HEK- (HEK-293), MTT, 48 hours
# Description: as §4, §5
# Subculture six kinds of cells, which has a logarithmic growing period, adherent rate about 80%, and in good condition, such as human cervical carcinoma Hela cells, human hepatoma BEL-7402 cells, mucinous Human epidermoid A549 lung cancer cells, human breast cancer MCF-7/S cells, human glioma U251 cells, and human normal embryonic kidney HEK-293 cells. […] Repeat the above experiment three times to get an average value.
# as §7
# [6] = system: human breast cancer MCF-7/S cells; assay: MTT anti-tumor test in vitro, MCF-7/S; assay type: cell-based; settings: MCF-7 (MCF-7/S)
# Description: as §4, §5, §6, §7, §8
# [7] = system: human cervical carcinoma Hela cells; assay: MTT anti-tumor test in vitro, Hela; assay type: cell-based; settings: for IC50 value: Hela, MTT, 48 hours
# Description: as §4, §5, §6, §7, §8
# [8] = single tail vein administration 350 mg/kg
# Procedure: After the drug delivery, continuously observe the mice responses for 4 hours; after all, observe the mice twice a day (one is in the morning, and the other is in the afternoon) for 14 days, wherein the observation includes the appearance, behavior, secretions, excreta of the mice etc., and recording all the death situation, poisoning symptoms, the starting time and ending time of toxic reactions of the mice, severity, duration time of toxic, and to see if it is reversible reaction etc., sent it to the pathology examination if necessary, weight the mice before and after the drug delivered day of 3, 7, 10, and 14 days. After finishing the observation process, execute all of the mice, and anatomize the dead bodies of mice.
# [9] = system: mucinous Human epidermoid A549 lung cancer cells; assay: MTT anti-tumor test in vitro, A549; assay type: cell-based; settings: for IC50 value: A549, MTT, 48 hours
# Description: as §4, §5, §6, §7, §8
# [10] = ip. 60/single mg/kg on the second day of tumor-bearing
# [11] = ip. 60/single mg/kg on the second day of tumor-bearing, H22 tumor-bearing mice
# [12] = average of three experiments ± SD, 48 hours
# [13] = average of three experiments ± SD
compound,measurement,setting,value
"O=P1(N(CCCl)CCCl)NCCCO1 (centres unmarked) [CTX, cyclophosphamide, reference compound]",IR/% (inhibition rate),[1]; [10],55.2%
same,Tumor weight/g,[1]; [10],0.686 ± 0.303 g
same,Mice weight/g After drug delivery,[2]; [11],19.6 ± 2.0 g
same,Mice weight/g Before drug deli.,[2]; [11],23.6 ± 1.8 g
same,Spleen index/mg · g^−1,[2]; [11],3.00 ± 0.59 mg/g
same,Thymus index/mg · g^−1,[2]; [11],2.46 ± 0.65 mg/g
"2,4-dimethoxy-3-isopentenyl-cinnamic acid (E:Z=1:1) [I-d]",IC50 value,[3]; [12],216.72 ± 5.07 µg/mL
same,IC50 value,"[3]; experiment 1, 48 hours",221 µg/mL
same,IC50 value,"[3]; experiment 2, 48 hours",211 µg/mL
same,Tumor weight/g,"[1]; i.g. 200 mg·(kg·d)^−1, once a day for 10 days",0.991 ± 0.410 g
same,Tumor weight/g,"[1]; i.v. 25 mg·(kg·d)^−1, once a day for 10 days",1.307 ± 0.436 g
same,IR/% (inhibition rate),"[1]; i.v. 25 mg·(kg·d)^−1, once a day for 10 days (low-dose group)",14.7%
same,Tumor weight/g,"[1]; i.v. 50 mg·(kg·d)^−1, once a day for 10 days",1.068 ± 0.437 g
same,IR/% (inhibition rate),"[1]; i.v. 50 mg·(kg·d)^−1, once a day for 10 days (medium-dose group)",30.3%
same,Tumor weight/g,"[1]; i.v. 100 mg·(kg·d)^−1, once a day for 10 days",0.901 ± 0.425 g
same,IR/% (inhibition rate),"[1]; i.v. 100 mg·(kg·d)^−1, once a day for 10 days (high-dose group)",41.2%
same,IC50 value,[4]; [12],204.44 ± 9.50 µg/mL
same,IC50 value,"[4]; experiment 1, 48 hours",210 µg/mL
same,IC50 value,"[4]; experiment 2, 48 hours",193 µg/mL
same,IC50 value,[5]; [13],350.77 ± 14.09 µg/mL
same,IC50 value,[5]; experiment 1,347 µg/mL
same,IC50 value,[5]; experiment 2,366 µg/mL
same,IC50 value,[6]; [12],193.46 ± 7.57 µg/mL
same,IC50 value,"[6]; experiment 1, 48 hours",200 µg/mL
same,IC50 value,"[6]; experiment 2, 48 hours",196 µg/mL
same,IC50 value,[7]; [13],153.59 ± 13.03 µg/mL
same,IC50 value,[7]; experiment 1,144 µg/mL
same,IC50 value,[7]; experiment 2,149 µg/mL
same,HeLa cell proliferation IC50 values,[7]; at 48 hours,148.59 ± 5.96 µg/mL
same,drug reaction after administration,[8],"abnormally excited at first, and then become in an inhibit state"
same,Mice weight/g After drug delivery,"[2]; mouse, in vivo",20.0 ± 2.1 g
same,Mice weight/g Before drug deli.,"[2]; mouse, in vivo",24.6 ± 2.9 g
same,effect near the tail vein of the mice and its surrounding tissue,"[2]; mouse, in vivo",irritation or corrosive
same,general observation after injection (central nervous signs),"[2]; mouse, in vivo",central nerve inhibition phenomenon
same,splenomegaly of the tumor-bearing mice,"[2]; mouse, in vivo",can cause the splenomegaly
same,IC50 value,[9]; experiment 1,190 µg/mL
same,IC50 value,[9]; experiment 2,183 µg/mL
same,A549 cell proliferation IC50 values,[9]; at 48 hours,184.56 ± 5.80 µg/mL
